Results taken from ChEMBL document CHEMBL2203055, “From α4β2 Nicotinic Ligands to the Discovery of σ1 Receptor Ligands: Pharmacophore Analysis and Rational Design” (ACS Med Chem Lett, 2012).

Tests used:
[1] = target: T1, Sodium-dependent dopamine transporter (Homo sapiens, UniProt Q01959); assay: Displacement of [3H]WIN35428 from human recombinant DAT at 10 uM after 1.5 hrs by microbeta scintillation counting analysis
[2] = target: 5-hydroxytryptamine receptor 1E (Homo sapiens) (UniProt P28566); assay: Displacement of [3H]5-HT from human recombinant 5-HT1E receptor at 10 uM after 1.5 hrs by microbeta scintillation counting analysis
Sequence of 5-hydroxytryptamine receptor 1E (Homo sapiens) (P28566 whole entry): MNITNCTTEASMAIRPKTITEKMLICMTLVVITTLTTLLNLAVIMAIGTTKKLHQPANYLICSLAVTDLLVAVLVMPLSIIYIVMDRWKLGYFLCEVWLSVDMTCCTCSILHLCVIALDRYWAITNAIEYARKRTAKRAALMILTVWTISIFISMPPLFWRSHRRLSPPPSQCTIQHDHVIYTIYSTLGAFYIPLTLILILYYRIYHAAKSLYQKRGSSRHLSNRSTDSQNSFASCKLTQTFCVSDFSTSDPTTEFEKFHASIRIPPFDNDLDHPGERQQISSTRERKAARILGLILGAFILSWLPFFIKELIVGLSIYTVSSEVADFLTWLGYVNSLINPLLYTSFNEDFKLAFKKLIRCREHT

[3] = target: D(2) dopamine receptor (Homo sapiens) (UniProt P14416); assay: Displacement of [3H]N-methylspiperone from human recombinant D2 receptor at 10 uM after 1.5 hrs by microbeta scintillation counting analysis
Sequence of D(2) dopamine receptor (Homo sapiens) (P14416 whole entry): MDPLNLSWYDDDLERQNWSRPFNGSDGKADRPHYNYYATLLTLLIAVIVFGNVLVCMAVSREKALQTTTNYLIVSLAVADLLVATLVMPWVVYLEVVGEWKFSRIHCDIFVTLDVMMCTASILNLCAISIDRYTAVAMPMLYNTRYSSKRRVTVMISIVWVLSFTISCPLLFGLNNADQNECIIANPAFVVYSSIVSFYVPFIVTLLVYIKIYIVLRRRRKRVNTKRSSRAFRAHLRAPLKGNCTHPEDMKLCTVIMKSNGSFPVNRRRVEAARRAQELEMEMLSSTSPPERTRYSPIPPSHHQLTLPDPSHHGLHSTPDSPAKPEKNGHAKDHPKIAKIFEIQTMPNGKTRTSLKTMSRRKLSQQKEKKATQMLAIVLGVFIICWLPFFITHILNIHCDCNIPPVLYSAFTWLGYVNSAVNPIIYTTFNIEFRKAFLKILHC

[4] = target: Beta-3 adrenergic receptor (Homo sapiens) (UniProt P13945); assay: Displacement of [125I]Iodopindolol from beta 3 adrenergic receptor at 10 uM after 1.5 hrs by microbeta scintillation counting analysis
[5] = target: 5-hydroxytryptamine receptor 2B (Homo sapiens, UniProt P41595); assay: Displacement of [3H]LSD from human recombinant 5-HT2B receptor at 10 uM after 1.5 hrs by microbeta scintillation counting analysis
[6] = target: Sodium-dependent noradrenaline transporter (Homo sapiens, UniProt P23975); assay: Displacement of [3H]nisoxetine from human recombinant NET at 10 uM after 1.5 hrs by microbeta scintillation counting analysis
Rattus norvegicus [7] = species on record: Rattus norvegicus; assay: Displacement of [3H]muscimol from GABAA receptor in rat brain membrane at 10 uM after 1.5 hrs by microbeta scintillation counting analysis; format: cell membranes
[8] = target: 5-hydroxytryptamine receptor 2C (Homo sapiens) (UniProt P28335); assay: Displacement of [3H]mesulergine from human recombinant 5-HT2C receptor at 10 uM after 1.5 hrs by microbeta scintillation counting analysis
[9] = target: T2, 5-hydroxytryptamine receptor 2A (Homo sapiens, UniProt P28223); assay: Displacement of [3H]ketanserin from human recombinant 5-HT2A receptor after 1.5 hrs by microbeta scintillation counting analysis
T2 sequence (P28223 whole entry): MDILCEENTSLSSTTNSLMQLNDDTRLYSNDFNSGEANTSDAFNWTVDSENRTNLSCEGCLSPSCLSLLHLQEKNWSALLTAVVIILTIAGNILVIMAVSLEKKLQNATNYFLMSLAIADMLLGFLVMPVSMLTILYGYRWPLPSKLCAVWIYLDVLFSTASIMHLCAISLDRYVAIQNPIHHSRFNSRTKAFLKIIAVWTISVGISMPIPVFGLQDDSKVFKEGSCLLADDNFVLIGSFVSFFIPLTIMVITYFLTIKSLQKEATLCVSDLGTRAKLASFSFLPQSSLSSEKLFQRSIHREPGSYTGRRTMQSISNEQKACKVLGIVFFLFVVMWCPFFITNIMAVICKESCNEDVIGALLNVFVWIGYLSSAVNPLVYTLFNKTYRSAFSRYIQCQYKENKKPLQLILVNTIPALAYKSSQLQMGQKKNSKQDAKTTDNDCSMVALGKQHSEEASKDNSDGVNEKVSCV

[10] = target: 5-hydroxytryptamine receptor 5A (Homo sapiens) (UniProt P47898); assay: Displacement of [3H]LSD from human recombinant 5-HT5A receptor at 10 uM after 1.5 hrs by microbeta scintillation counting analysis
[11] = target: T2, 5-hydroxytryptamine receptor 2A; assay: Displacement of [3H]ketanserin from human recombinant 5-HT2A receptor at 10 uM after 1.5 hrs by microbeta scintillation counting analysis
[12] = target: Muscarinic acetylcholine receptor M5 (Homo sapiens) (UniProt P08912); assay: Displacement of [3H]QNB from human recombinant muscarinic M5 receptor at 10 uM after 1.5 hrs by microbeta scintillation counting analysis
[13] = target: D(1B) dopamine receptor (Homo sapiens) (UniProt P21918); assay: Displacement of [3H]SCH23390 from human recombinant D5 receptor at 10 uM after 1.5 hrs by microbeta scintillation counting analysis
[14] = target: Muscarinic acetylcholine receptor M1 (Homo sapiens) (UniProt P11229); assay: Displacement of [3H]QNB from human recombinant muscarinic M1 receptor at 10 uM after 1.5 hrs by microbeta scintillation counting analysis
[15] = target: 5-hydroxytryptamine receptor 1D (Homo sapiens) (UniProt P28221); assay: Displacement of [3H]GR125743 from human recombinant 5-HT1D receptor at 10 uM after 1.5 hrs by microbeta scintillation counting analysis
[16] = target: Alpha-2C adrenergic receptor (Homo sapiens) (UniProt P18825); assay: Displacement of [3H]clonidine from alpha 2C adrenergic receptor at 10 uM after 40 mins by microbeta scintillation counting analysis
[17] = target: Sigma non-opioid intracellular receptor 1 (Rattus norvegicus, UniProt Q9R0C9); assay: Displacement of [3H]pentazocine from sigma 1 receptor in rat brain membrane after 2.5 hrs by microbeta scintillation counting analysis; format: cell membranes
[18] = target: Alpha-2B adrenergic receptor (Homo sapiens) (UniProt P18089); assay: Displacement of [3H]clonidine from human recombinant alpha 2B adrenergic receptor at 10 uM after 40 mins by microbeta scintillation counting analysis
[19] = target: 5-hydroxytryptamine receptor 6 (Homo sapiens, UniProt P50406); assay: Displacement of [3H]LSD from human recombinant 5-HT6 receptor at 10 uM after 1.5 hrs by microbeta scintillation counting analysis
Histamine H1 receptor = Histamine H1 receptor (Homo sapiens, UniProt P35367); assay: Displacement of [3H]pyrilamine from human recombinant histamine H1 receptor at 10 uM after 1.5 hrs by microbeta scintillation counting analysis
Sequence of Histamine H1 receptor (P35367 whole entry): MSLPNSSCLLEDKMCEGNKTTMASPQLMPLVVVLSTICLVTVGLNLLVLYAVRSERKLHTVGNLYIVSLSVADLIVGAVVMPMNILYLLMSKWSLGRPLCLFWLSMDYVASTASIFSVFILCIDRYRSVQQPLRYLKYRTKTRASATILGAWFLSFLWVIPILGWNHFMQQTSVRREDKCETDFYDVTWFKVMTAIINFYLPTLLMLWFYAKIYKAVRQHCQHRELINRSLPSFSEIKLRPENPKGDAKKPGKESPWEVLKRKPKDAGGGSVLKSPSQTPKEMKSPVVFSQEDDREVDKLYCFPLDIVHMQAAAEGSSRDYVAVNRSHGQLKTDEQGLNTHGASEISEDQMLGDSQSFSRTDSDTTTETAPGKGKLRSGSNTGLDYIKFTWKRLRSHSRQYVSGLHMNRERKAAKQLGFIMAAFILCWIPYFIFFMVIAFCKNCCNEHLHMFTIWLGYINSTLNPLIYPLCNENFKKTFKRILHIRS

[20] = target: Sodium-dependent serotonin transporter (Homo sapiens) (UniProt P31645); assay: Displacement of [3H]citalopram from human recombinant SERT at 10 uM after 1.5 hrs by microbeta scintillation counting analysis
Sequence of Sodium-dependent serotonin transporter (Homo sapiens) (P31645 whole entry, looked up): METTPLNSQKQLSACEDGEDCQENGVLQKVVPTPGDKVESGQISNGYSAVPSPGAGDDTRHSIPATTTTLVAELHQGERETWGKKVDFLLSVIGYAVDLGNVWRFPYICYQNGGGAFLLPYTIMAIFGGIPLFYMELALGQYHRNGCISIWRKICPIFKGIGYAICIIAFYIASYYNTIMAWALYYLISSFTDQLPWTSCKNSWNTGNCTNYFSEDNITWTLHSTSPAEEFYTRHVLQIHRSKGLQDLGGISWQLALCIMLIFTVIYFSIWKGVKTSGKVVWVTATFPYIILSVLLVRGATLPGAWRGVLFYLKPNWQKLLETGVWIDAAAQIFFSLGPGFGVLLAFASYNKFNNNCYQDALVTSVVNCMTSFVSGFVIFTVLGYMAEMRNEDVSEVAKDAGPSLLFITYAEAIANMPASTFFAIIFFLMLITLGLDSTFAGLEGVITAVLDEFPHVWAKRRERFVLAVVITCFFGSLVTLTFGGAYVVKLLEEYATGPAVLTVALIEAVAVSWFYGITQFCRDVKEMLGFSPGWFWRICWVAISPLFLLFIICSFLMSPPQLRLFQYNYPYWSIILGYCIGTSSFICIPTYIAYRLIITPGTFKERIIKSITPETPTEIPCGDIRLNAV

[21] = target: D(4) dopamine receptor (Homo sapiens) (UniProt P21917); assay: Displacement of [3H]N-methylspiperone from D4 receptor at 10 uM after 1.5 hrs by microbeta scintillation counting analysis
Sequence of D(4) dopamine receptor (Homo sapiens) (P21917 whole entry): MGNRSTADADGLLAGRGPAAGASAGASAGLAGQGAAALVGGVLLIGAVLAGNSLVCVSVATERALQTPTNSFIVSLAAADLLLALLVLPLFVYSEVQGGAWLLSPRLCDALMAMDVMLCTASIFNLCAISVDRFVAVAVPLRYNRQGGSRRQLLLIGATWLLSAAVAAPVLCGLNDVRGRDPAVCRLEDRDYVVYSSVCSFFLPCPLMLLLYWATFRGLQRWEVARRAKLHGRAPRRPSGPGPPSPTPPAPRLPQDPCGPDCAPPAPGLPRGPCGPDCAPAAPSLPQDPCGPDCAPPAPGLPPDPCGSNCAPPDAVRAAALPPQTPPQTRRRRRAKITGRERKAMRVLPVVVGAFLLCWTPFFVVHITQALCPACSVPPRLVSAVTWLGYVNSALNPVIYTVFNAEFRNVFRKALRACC

[22] = target: 5-hydroxytryptamine receptor 3A (Homo sapiens) (UniProt P46098); assay: Displacement of [3H]LY-278584 from human recombinant 5-HT3 receptor at 10 uM after 1.5 hrs by microbeta scintillation counting analysis
Sequence of 5-hydroxytryptamine receptor 3A (Homo sapiens) (P46098 whole entry): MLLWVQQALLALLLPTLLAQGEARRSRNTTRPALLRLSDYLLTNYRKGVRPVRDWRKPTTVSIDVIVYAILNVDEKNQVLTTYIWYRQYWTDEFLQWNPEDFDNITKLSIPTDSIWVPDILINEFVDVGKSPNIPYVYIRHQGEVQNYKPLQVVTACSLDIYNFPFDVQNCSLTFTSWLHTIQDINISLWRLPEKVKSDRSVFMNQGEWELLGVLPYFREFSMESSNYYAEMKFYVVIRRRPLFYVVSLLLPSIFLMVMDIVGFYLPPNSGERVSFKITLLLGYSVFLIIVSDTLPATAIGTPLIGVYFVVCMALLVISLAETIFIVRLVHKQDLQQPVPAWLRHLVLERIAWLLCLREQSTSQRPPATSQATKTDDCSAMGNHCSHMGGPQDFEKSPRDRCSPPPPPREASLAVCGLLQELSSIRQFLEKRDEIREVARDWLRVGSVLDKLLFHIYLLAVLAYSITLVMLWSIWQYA

[23] = target: Muscarinic acetylcholine receptor M2 (Homo sapiens) (UniProt P08172); assay: Displacement of [3H]QNB from human recombinant muscarinic M2 receptor at 10 uM after 1.5 hrs by microbeta scintillation counting analysis
[24] = target: Beta-2 adrenergic receptor (Homo sapiens, UniProt P07550); assay: Displacement of [125I]Iodopindolol from beta 2 adrenergic receptor at 10 uM after 1.5 hrs by microbeta scintillation counting analysis
[25] = target: 5-hydroxytryptamine receptor 1B (Homo sapiens) (UniProt P28222); assay: Displacement of [3H]GR125743 from human recombinant 5-HT1B receptor at 10 uM after 1.5 hrs by microbeta scintillation counting analysis
[26] = target: Alpha-1A adrenergic receptor (Homo sapiens) (UniProt P35348); assay: Displacement of [3H]prazosin from alpha 1A adrenergic receptor at 10 uM after 1 hr by microbeta scintillation counting analysis
[27] = target: T1, Sodium-dependent dopamine transporter; assay: Displacement of [3H]WIN35428 from human recombinant DAT after 1.5 hrs by microbeta scintillation counting analysis
[28] = target: D(3) dopamine receptor (Homo sapiens) (UniProt P35462); assay: Displacement of [3H]N-methylspiperone from D3 receptor at 10 uM after 1.5 hrs by microbeta scintillation counting analysis
Sequence of D(3) dopamine receptor (Homo sapiens) (P35462 whole entry): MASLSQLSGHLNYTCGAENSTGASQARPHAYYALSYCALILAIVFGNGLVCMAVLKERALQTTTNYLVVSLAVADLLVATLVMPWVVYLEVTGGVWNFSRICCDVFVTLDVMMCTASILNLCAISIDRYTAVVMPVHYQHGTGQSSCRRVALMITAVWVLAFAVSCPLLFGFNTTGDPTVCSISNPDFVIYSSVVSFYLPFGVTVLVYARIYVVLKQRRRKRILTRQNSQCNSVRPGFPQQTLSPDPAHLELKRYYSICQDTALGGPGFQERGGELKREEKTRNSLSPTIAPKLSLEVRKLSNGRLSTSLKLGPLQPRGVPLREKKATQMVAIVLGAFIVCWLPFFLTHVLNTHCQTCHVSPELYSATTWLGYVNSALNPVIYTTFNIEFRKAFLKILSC

[29] = target: 5-hydroxytryptamine receptor 7 (Homo sapiens) (UniProt P34969); assay: Displacement of [3H]LSD from human recombinant 5-HT7 receptor at 10 uM after 1.5 hrs by microbeta scintillation counting analysis
Sequence of 5-hydroxytryptamine receptor 7 (Homo sapiens) (P34969 whole entry): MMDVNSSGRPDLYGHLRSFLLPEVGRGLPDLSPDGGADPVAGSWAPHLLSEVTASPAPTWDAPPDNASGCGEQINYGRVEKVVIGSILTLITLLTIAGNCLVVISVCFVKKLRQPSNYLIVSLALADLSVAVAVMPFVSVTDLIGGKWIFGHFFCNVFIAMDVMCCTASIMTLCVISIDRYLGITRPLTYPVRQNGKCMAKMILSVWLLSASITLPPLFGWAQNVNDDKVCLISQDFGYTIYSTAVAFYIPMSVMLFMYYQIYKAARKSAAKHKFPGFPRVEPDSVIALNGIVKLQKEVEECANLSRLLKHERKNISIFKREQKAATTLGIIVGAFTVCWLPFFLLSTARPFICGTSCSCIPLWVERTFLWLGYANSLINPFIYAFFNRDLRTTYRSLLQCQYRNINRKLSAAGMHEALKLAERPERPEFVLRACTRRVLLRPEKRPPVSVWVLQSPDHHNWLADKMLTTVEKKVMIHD

[30] = target: Mu-type opioid receptor (Homo sapiens) (UniProt P35372); assay: Displacement of [3H]DAMGO from mu-opioid receptor at 10 uM after 1.5 hrs by microbeta scintillation counting analysis
[31] = target: Alpha-1D adrenergic receptor (Homo sapiens) (UniProt P25100); assay: Inhibitory activity against alpha 1D adrenergic receptor at 10 uM
Histamine H2 receptor = Histamine H2 receptor (Homo sapiens, UniProt P25021); assay: Displacement of [3H]tiotidine from human recombinant histamine H2 receptor at 10 uM after 1.5 hrs by microbeta scintillation counting analysis
Rattus norvegicus [32] = species on record: Rattus norvegicus; assay: Inhibitory activity against benzodiazepine receptor in rat brain at 10 uM; format: tissue-based

T1 sequence (Q01959 whole entry): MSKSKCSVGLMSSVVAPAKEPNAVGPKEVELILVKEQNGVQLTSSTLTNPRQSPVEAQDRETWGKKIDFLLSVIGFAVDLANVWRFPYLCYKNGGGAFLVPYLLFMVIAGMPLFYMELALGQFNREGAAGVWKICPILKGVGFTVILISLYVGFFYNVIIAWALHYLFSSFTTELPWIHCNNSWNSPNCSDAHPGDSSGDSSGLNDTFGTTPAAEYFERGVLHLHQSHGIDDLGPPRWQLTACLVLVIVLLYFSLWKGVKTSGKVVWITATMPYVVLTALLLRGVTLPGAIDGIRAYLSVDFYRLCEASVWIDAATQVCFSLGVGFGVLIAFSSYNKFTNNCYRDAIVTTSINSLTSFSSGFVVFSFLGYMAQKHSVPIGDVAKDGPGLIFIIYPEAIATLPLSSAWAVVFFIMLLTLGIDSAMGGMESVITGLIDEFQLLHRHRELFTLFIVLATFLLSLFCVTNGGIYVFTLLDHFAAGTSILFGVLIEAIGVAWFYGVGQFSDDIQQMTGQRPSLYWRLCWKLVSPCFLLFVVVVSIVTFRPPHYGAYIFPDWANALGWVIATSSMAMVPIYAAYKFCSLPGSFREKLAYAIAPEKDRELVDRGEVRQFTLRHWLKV

Row | SMILES | Efficacy [1] | Efficacy [2] | Efficacy [3] | Efficacy [4] | Efficacy [5] | Efficacy [6] | Efficacy (Rattus norvegicus [7]) | Efficacy [8] | Ki [9] | Efficacy [10] | Efficacy [11] | Efficacy [12] | Efficacy [13] | Efficacy [14] | Efficacy [15] | Efficacy [16] | Ki [17] | Efficacy [18] | Efficacy [19] | Efficacy (Histamine H1 receptor) | further results
1 | c1ccc(OCc2cc(OC[C@@H]3CCCN3)no2)cc1 | 59.4% | -4.7% | 23.9% | 7.2% | 54.5% | 95.9% | 5.7% | 76.9% | 4410 nM | 32.4% | 68% | 36.6% | 36.5% | 4.4% | 15.7% | 39.3% | 4.1 nM | 44.4% | 28.3% | 55% | Efficacy [20]: 3.4%; Efficacy [21]: 32%; Efficacy [22]: 7%; Efficacy [23]: 11.8%; Efficacy [24]: 55.6%; Efficacy [25]: -1.2%; Efficacy [26]: 21%; Ki [27]: 373 nM; Efficacy [28]: 35.9%; Efficacy [29]: 16.9%; Efficacy [30]: 29.8%; Efficacy [31]: 25.2%; Efficacy (Histamine H2 receptor): 57.2%; Efficacy (Rattus norvegicus [32]): 27.1%
2 | c1ccc(OCc2cc(OC[C@@H]3CCN3)no2)cc1 | 91.8% | 5.9% | 22.9% | -1.5% | 43.3% | 97.2% | 2.5% | 68.8% | 6400 nM | 15.2% | 77.9% | 44.5% | 4.9% | 5.7% | 14% | 43.8% | 33 nM | 34.8% | 51.6% | 49.2% | Efficacy [20]: 8.8%; Efficacy [21]: 30%; Efficacy [22]: -0.1%; Efficacy [23]: 12.6%; Efficacy [24]: 29.4%; Efficacy [25]: 2.3%; Efficacy [26]: 17.5%; Ki [27]: 24 nM; Efficacy [28]: 12.9%; Efficacy [29]: 42.4%; Efficacy [30]: 38.1%; Efficacy [31]: 22.4%; Efficacy (Histamine H2 receptor): 40.9%; Efficacy (Rattus norvegicus [32]): 23.5%
